PMC4226840, “An open-label study to determine the maximum tolerated dose of the multitargeted tyrosine kinase inhibitor CEP-11981 in patients with advanced cancer” (Investigational New Drugs, 2014)

Experiments:
VEGFR-1 = system: VEGFR-1; set-up: method as in PMID 22148921; conditions: in vitro; cited from earlier work
Aurora A = system: Aurora A; set-up: method as in PMID 22148921; conditions: cited from earlier work
VEGFR-2 = system: VEGFR-2; set-up: method as in PMID 22148921; conditions: in vitro; cited from earlier work
[1] = Phase I safety: adverse events (CTCAE v3.0)
Procedure: Adverse events were recorded and graded according to the Common Terminology Criteria for Adverse Events, version 3.0.
Physical examinations, urinalysis, ECG, and laboratory evaluations (including serum chemistry and hematology) were performed at screening and on days 1, 2, 8, 15, 22, and 29 of cycle 1; on days 1, 15, and 29 of subsequent cycles; and at the end-of-treatment follow-up visit (14 days after the last dose). Adverse events were evaluated on days 2, 8, 15, and 22 of cycle 1; on days 1, 15, and 29 of every subsequent cycle; and at the end-of-treatment follow-up visit.

Tie-2 = system: Tie-2; set-up: method as in PMID 22148921; conditions: cited from earlier work
[2] = Phase I dose escalation: MTD and DLTs; assay type: in vivo, human
Procedure: This was an open-label, nonrandomized, multicenter, dose-escalation phase I study of CEP-11981 in patients with advanced, relapsed/refractory solid tumors. The study was conducted in accordance with Good Clinical Practice: Consolidated Guidance approved by the International Conference on Harmonisation, and applicable national and local laws and regulations and approved by appropriate Independent Ethics Committees or Institutional Review Boards. All patients provided written consent before study procedures or assessments were performed.
The primary measures were MTD and DLTs. MTD was defined as the highest dose at which one-third or fewer of patients in a cohort experienced a DLT, which included grade ≥ 2 proteinuria, grade ≥ 3 nonhematologic toxicity (excluding hypertension and pain), grade ≥ 3 thrombocytopenia with bleeding, or grade 4 hematologic toxicity that was not clearly due to progressive cancer. Secondary measures included the pharmacokinetics of CEP-11981 after a single dose and multiple doses, the pharmacokinetic-pharmacodynamic profile of CEP-11981, safety, and preliminary efficacy. The efficacy endpoint was the proportion of patients who achieved complete or partial response on study (minimum of 6 weeks) according to Response Evaluation Criteria in Solid Tumors (RECIST) guidelines.
Oral CEP-11981 was administered once daily for the first 28 days of each 42-day cycle. Initial dose escalation from the starting dose of 3 mg/m^2 was by 40 % increments. After completion of additional toxicology studies and the preliminary analysis of plasma exposure in patients, the dose for the fourth cohort was doubled from the third cohort and thereafter the escalation followed a modified Fibonacci sequence. The final dose levels were: 3.0, 4.2, 5.9, 11.8, 19.7, 29.6, 41.4, 55.0, 73.0, 97.4, and 126.6 mg/m^2. The dose administered was rounded to the smallest capsule strength available. Dosing for a patient was to be stopped at the onset of a DLT and, at resolution within 14 days, could be resumed at a dose equal to 50 % of the patient’s current dose. […]

Substance: 11-(2-methylpropyl)-12,13-dihydro-2-methyl-8-(pyrimidin-2-ylamino)-4H-indazolo[5,4-a]pyrrolo[3,4-c]carbazol-4-one [CEP-11981]
- IC50 (VEGFR-1): 3 nM
- IC50 (Aurora A): 42 nM
- IC50 (VEGFR-2): 4 nM
- Grade 3/4 adverse events ([1]; 3.0 mg/m^2 n = 3): • Abdominal pain • Arthralgia • Back pain
- Grade 3/4 adverse events ([1]; 4.2 mg/m^2 n = 3): • Abdominal pain
- Grade 3/4 adverse events ([1]; 5.9 mg/m^2 n = 5): • Hyperkalemia
- Grade 3/4 adverse events ([1]; 19.7 mg/m^2 n = 3): • Back pain • Hypokalemia • Hyponatremia • Lumbar vertebral fracture
- Grade 3/4 adverse events ([1]; 55.0 mg/m^2 n = 5): • Abdominal pain • Anxiety • Arthralgia • Back pain • Cellulitis • Constipation • Hypokalemia • Impaired healing • Musculo-skeletal pain • Peripheral edema • Scrotal edema • Somnolence
- Grade 3/4 adverse events ([1]; 73.0 mg/m^2 n = 3): • Anemia • Leukopenia • Diarrhea • Decreased appetite • Musculo-skeletal pain • Neck pain • Headache • Pleural effusion
- Grade 4 leukopenia ([1]; 126.6 mg/m^2 cohort): 1 patient
- Grade 4 neutropenia ([1]; 126.6 mg/m^2 cohort): 1 patient
- Grade 3/4 adverse events ([1]; 126.6 mg/m^2 n = 2, ^b treatment-related): • Neutropenia^b • ECG change
- Grade 3/4 abdominal pain ([1]; across all groups): 7%
- Grade 3/4 back pain ([1]; across all groups): 7%
- Grade 3/4 lymphopenia ([1]; across all groups): 19%
- Grade 3/4 neutropenia ([1]; across all groups): 7%
- Patients with ECG changes ([1]; all cohorts): 2%
- Patients with hypertension ([1]; all cohorts): 2%
- Abdominal pain, any grade ([1]; all cohorts, N = 43): 30%
- Back pain, any grade ([1]; all cohorts, N = 43): 28%
- Constipation, any grade ([1]; all cohorts, N = 43): 28%
- Deaths during the study ([1]; all cohorts, N = 43): No deaths occurred
- Decreased appetite, any grade ([1]; all cohorts, N = 43): 33%
- Diarrhea, any grade ([1]; all cohorts, N = 43): 33%
- Dizziness, any grade ([1]; all cohorts, N = 43): 28%
- Dyspnea, any grade ([1]; all cohorts, N = 43): 23%
- Fatigue, any grade ([1]; all cohorts, N = 43): 51%
- Headache, any grade ([1]; all cohorts, N = 43): 28%
- Nausea, any grade ([1]; all cohorts, N = 43): 47%
- Patients with adverse events possibly, probably, or definitely related to study drug ([1]; all cohorts, N = 43): 88.3%
- Patients with grade 3 adverse events ([1]; all cohorts, N = 43): 32.6%
- Patients with grade 3 or 4 adverse events ([1]; all cohorts, N = 43): 37%
- Patients with grade 3 or 4 laboratory hematologic toxicities ([1]; all cohorts, N = 43): 18.6%
- Patients with grade 4 adverse events ([1]; all cohorts, N = 43): 4.7%
- Patients with ≥ 1 adverse event ([1]; all cohorts, N = 43): 43 patients
- Serious adverse events ([1]; all cohorts, N = 43): 12 patients
- Vomiting, any grade ([1]; all cohorts, N = 43): 28%
- IC50 (Tie-2): 22 nM
- DLTs ([2]; 97.4 mg/m^2 cohort, n = 9): no DLTs were observed
- Patients with DLTs ([2]; 126.6 mg/m^2 cohort, n = 2): 2 patients
- Maximum-tolerated dose (MTD) ([2]; oral once daily, first 28 days of each 42-day cycle, patients with solid tumors): 97.4 mg/m^2
